Assay results published in ChEMBL document CHEMBL4732135, “Structural and mechanistic insights into the inhibition of amyloid-β aggregation by Aβ fragment derived synthetic peptides” (Eur J Med Chem, 2021).
Square brackets hold non-standard residues; d marks the D form. Peptide text beside a SMILES is read from it. ξ: configuration not given here. Phe(4-NO2) = N[C@@H](Cc1ccc([N+](=O)[O-])cc1)C(=O)O; Phe(4-CF3) = N[C@@H](Cc1ccc(C(F)(F)F)cc1)C(=O)O; Phe(4-tBu) = CC(C)(C)c1ccc(C[C@H](N)C(=O)O)cc1; Bip = N[C@@H](Cc1ccc(-c2ccccc2)cc1)C(=O)O; Phe(4-Cl) = N[C@@H](Cc1ccc(Cl)cc1)C(=O)O; Oic(3aξ,7aξ) = O=C(O)[C@@H]1CC2CCCCC2N1; Phe(4-NH2) = Nc1ccc(C[C@H](N)C(=O)O)cc1; Phe(4-Me) = Cc1ccc(C[C@H](N)C(=O)O)cc1; Gly(cPent) = N[C@H](C(=O)O)C1CCCC1; Ala(cPr) = N[C@@H](CC1CC1)C(=O)O; 4Pal = N[C@@H](Cc1ccncc1)C(=O)O; NMeL = CN[C@@H](CC(C)C)C(=O)O; Tle = CC(C)(C)[C@H](N)C(=O)O; NMeNva = CCC[C@H](NC)C(=O)O; β3hP = O=C(O)C[C@@H]1CCCN1; Ac5c = NC1(C(=O)O)CCCC1; Abu = CC[C@H](N)C(=O)O; βAla = NCCC(=O)O

Tests used:
[1] = system: PC-12; assay: Neuroprotective activity against amyloid beta 42-induced toxicity in rat PC-12 cells assessed as cell viability at 10 uM measured after 6 hrs by MTT assay (reference value: 74.05%); format: functional; conditions: read-out: Activity
[2] = system: PC-12; assay: Neuroprotective activity against amyloid beta 42-induced toxicity in rat PC-12 cells assessed as cell viability at 4 uM measured after 6 hrs by MTT assay (reference value: 74.05%); format: functional; conditions: read-out: Activity
[3] = system: PC-12; assay: Neuroprotective activity against amyloid beta 42-induced toxicity in rat PC-12 cells assessed as cell viability at 2 uM measured after 6 hrs by MTT assay (reference value: 74.05%); format: functional; conditions: read-out: Activity
[4] = molecular target: Amyloid-beta precursor protein (Homo sapiens) (UniProt P05067); assay: Inhibition of amyloid beta (1 to 42) (unknown origin) assessed as reduction in peptide aggregation at 10 uM measured after 24 hrs by thioflavin-T fluorescence assay relative to control
Chain of Amyloid-beta precursor protein (Homo sapiens) (P05067 whole entry): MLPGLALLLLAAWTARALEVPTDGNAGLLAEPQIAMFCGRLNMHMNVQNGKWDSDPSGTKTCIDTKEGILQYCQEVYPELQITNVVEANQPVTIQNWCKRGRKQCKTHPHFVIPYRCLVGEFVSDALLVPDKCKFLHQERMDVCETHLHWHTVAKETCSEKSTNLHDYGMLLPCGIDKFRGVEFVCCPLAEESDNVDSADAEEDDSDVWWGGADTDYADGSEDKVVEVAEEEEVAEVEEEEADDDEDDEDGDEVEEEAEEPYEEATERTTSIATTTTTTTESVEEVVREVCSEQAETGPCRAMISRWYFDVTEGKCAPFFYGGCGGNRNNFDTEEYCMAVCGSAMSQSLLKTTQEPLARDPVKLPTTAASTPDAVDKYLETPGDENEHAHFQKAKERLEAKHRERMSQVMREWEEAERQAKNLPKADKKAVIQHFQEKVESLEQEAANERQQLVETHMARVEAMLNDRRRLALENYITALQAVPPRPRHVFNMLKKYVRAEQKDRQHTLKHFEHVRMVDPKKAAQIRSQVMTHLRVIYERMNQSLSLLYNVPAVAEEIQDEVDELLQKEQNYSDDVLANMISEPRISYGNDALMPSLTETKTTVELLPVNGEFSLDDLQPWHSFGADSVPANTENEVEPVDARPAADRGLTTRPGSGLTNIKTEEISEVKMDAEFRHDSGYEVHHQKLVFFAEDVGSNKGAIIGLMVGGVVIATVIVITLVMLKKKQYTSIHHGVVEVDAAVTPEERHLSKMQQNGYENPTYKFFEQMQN

[5] = molecular target: Amyloid-beta precursor protein (Homo sapiens) (UniProt P05067); assay: Inhibition of amyloid beta (1 to 42) (unknown origin) assessed as reduction in peptide aggregation at 4 uM measured after 24 hrs by thioflavin-T fluorescence assay relative to control
[6] = molecular target: Amyloid-beta precursor protein (Homo sapiens) (UniProt P05067); assay: Inhibition of amyloid beta (1 to 42) (unknown origin) assessed as reduction in peptide aggregation at 2 uM measured after 24 hrs by thioflavin-T fluorescence assay relative to control

Row | inhibition [4] | inhibition [5] | inhibition [6] | Compound | viability at 10 µM [1] | viability at 4 µM [2] | viability at 2 µM [3]
1 | 100% | 100% | 100% | CC[C@H](C)[C@H](NC(=O)C1(NC(=O)[C@@H](N)C(C)C)CCCC1)C(=O)N[C@@H](C)C(=O)O (H-V[Ac5c]IA-OH) | 100% | 97.1% | 89%
2 | 77.4% | 68.4% | 59.2% | CC[C@H](C)[C@H](NC(=O)[C@@H](NC(=O)[C@@H](N)Cc1ccc(N)cc1)C(C)C)C(=O)N[C@@H](C)C(=O)O (H-[Phe(4-NH2)]VIA-OH) | 82.1% | 70.3% | 77.8%
3 | 32.5% | 2% | 2.8% | CC[C@H](NC(=O)[C@@H](NC(=O)[C@@H](NC(=O)[C@@H](N)C(C)C)C(C)C)[C@@H](C)CC)C(=O)O (H-VVI[Abu]-OH) | 65.6% | 73.4% | 77.9%
4 | 13% | 0% | 0% | CC[C@H](C)[C@H](NC(=O)[C@@H](NC(=O)[C@@H](N)C(C)C)C(C)C)C(=O)NCCC(=O)O (H-VVI[βAla]-OH) | 87.3% | 93.1% | 97.8%
5 | 75.8% | 57.4% | 46.4% | CC[C@H](C)[C@H](NC(=O)[C@@H](NC(=O)[C@@H](N)Cc1ccc(Cl)cc1)C(C)C)C(=O)N[C@@H](C)C(=O)O (H-[Phe(4-Cl)]VIA-OH) | 72.3% | 73.9% | 80.1%
6 | 46.4% | 19.3% | 37.2% | CC(C)[C@H](N)C(=O)N[C@H](C(=O)N1C2CCCCC2C[C@H]1C(=O)N[C@@H](C)C(=O)O)C(C)C (some centres undefined) (H-VV[Oic(3aξ,7aξ)]A-OH) | 86.1% | 78.4% | 60%
7 | 100% | 99.2% | 96.1% | CC[C@H](C)[C@H](NC(=O)C[C@@H]1CCCN1C(=O)[C@@H](N)C(C)C)C(=O)N[C@@H](C)C(=O)O (H-V[β3hP]IA-OH) | 66.4% | 80.4% | 91.1%
8 | 61% | 44.1% | 31.6% | CC(C)C[C@@H](C(=O)N[C@@H](C)C(=O)O)N(C)C(=O)[C@@H](NC(=O)[C@@H](N)C(C)C)C(C)C (H-VV[NMeL]A-OH) | 84.8% | 87.2% | 96.3%
9 | 12.9% | 34.7% | 26.4% | CC[C@H](C)[C@H](NC(=O)[C@@H](NC(=O)[C@@H](N)Cc1ccc(-c2ccccc2)cc1)C(C)C)C(=O)N[C@@H](C)C(=O)O (H-[Bip]VIA-OH) | 83.2% | 80.6% | 86.5%
10 | 26.8% | 3.2% | 0% | CC[C@H](C)[C@H](NC(=O)[C@@H](NC(=O)[C@@H](N)Cc1ccc(C)cc1)C(C)C)C(=O)N[C@@H](C)C(=O)O (H-[Phe(4-Me)]VIA-OH) | 72.6% | 68.4% | 71.7%
11 | 67.3% | 58.2% | 50.1% | CC[C@H](C)[C@H](NC(=O)[C@@H](NC(=O)C[C@H](N)c1ccccc1)C(C)C)C(=O)N[C@@H](C)C(=O)O | 58.8% | 66.3% | 69.1%
12 | 47.8% | 40.3% | 17.1% | CC(C)[C@H](N)C(=O)N[C@H](C(=O)N[C@H](C(=O)N[C@@H](C)C(=O)O)C1CCCC1)C(C)C (H-VV[Gly(cPent)]A-OH) | 84.2% | 91.9% | 85.6%
13 | 100% | 100% | 100% | CC[C@H](C)[C@H](NC(=O)[C@@H](NC(=O)[C@@H](N)C(C)C)C(C)(C)C)C(=O)N[C@@H](C)C(=O)O (H-V[Tle]IA-OH) | 100% | 91.3% | 89.3%
14 | 0% | 0% | 0% | CC(C)[C@H](N)C(=O)N[C@H](C(=O)N[C@H](C(=O)N[C@@H](C)C(=O)O)C(C)(C)C)C(C)C (H-VV[Tle]A-OH) | 82.7% | 69.2% | 78.1%
15 | 24.1% | 5.3% | 0% | CC[C@H](NC(=O)[C@@H](N)C(C)C)C(=O)N[C@H](C(=O)N[C@@H](C)C(=O)O)[C@@H](C)CC (H-V[Abu]IA-OH) | 82.7% | 70.8% | 90.1%
16 | 11.9% | 0% | 0% | CC(C)[C@H](N)C(=O)N[C@H](C(=O)NC[C@@H]1CCCN1[C@@H](C)C(=O)O)C(C)C | 58.8% | 64.7% | 72%

The remaining lines, values behind:

Row | Compound | inhibition [4] | inhibition [5] | inhibition [6] | viability at 10 µM [1] | viability at 4 µM [2] | viability at 2 µM [3]
17 | CC[C@H](C)[C@H](NC(=O)[C@@H](NC(=O)[C@@H](N)Cc1ccc([N+](=O)[O-])cc1)C(C)C)C(=O)N[C@@H](C)C(=O)O (H-[Phe(4-NO2)]VIA-OH) | 50.4% | 78.4% | 94.8% | 73.7% | 100% | 94.1%
18 | CC[C@H](C)[C@H](NC(=O)[C@@H](NC(=O)[C@@H](N)Cc1ccc(C(F)(F)F)cc1)C(C)C)C(=O)N[C@@H](C)C(=O)O (H-[Phe(4-CF3)]VIA-OH) | 4.5% | 20.4% | 41.8% | 86.2% | 88.7% | 92.1%
19 | CC[C@H](C)[C@H](NC(=O)[C@@H](NC(=O)[C@@H](N)Cc1ccc(C(C)(C)C)cc1)C(C)C)C(=O)N[C@@H](C)C(=O)O (H-[Phe(4-tBu)]VIA-OH) | 42% | 57.4% | 78.6% | 80.2% | 87.3% | 93.6%
20 | CC[C@H](C)[C@H](NC(=O)[C@@H](NC(=O)[C@@H](N)C(C)C)C(C)C)C(=O)N[C@@H](CCC(=O)O)C(=O)O (H-VVIE-OH) | 65.1% | 39.3% | 38.8% | 84.9% | 76.3% | 68.9%
21 | CC(C)[C@H](N)C(=O)N[C@H](C(=O)N[C@@H](CC1CC1)C(=O)N[C@@H](C)C(=O)O)C(C)C (H-VV[Ala(cPr)]A-OH) | 0% | 0% | 0% | 65.9% | 77% | 68.4%
22 | CC[C@H](C)[C@H](NC(=O)CNC(=O)CN)C(=O)N[C@@H](C)C(=O)O (H-GGIA-OH) | 98.3% | 95.2% | 93.6% | 66.8% | 72.8% | 100%
23 | CC[C@H](C)[C@H](NC(=O)[C@@H]1CC2CCCCC2N1C(=O)[C@@H]1CC2CCCCC2N1)C(=O)N[C@@H](C)C(=O)O (some centres undefined) (H-[Oic(3aξ,7aξ)][Oic(3aξ,7aξ)]IA-OH) | 91.5% | 99.1% | 100% | 88.5% | 92.9% | 93.2%
24 | CC[C@H](C)[C@H](NC(=O)C[C@@H]1CCCN1C(=O)C[C@@H]1CCCN1)C(=O)N[C@@H](C)C(=O)O (H-[β3hP][β3hP]IA-OH) | 100% | 89.7% | 78.9% | 100% | 75.5% | 97.9%
25 | CC[C@H](NC(=O)[C@@H](NC(=O)[C@@H](N)C(C)C)C(C)C)C(=O)N[C@@H](C)C(=O)O (H-VV[Abu]A-OH) | 4.4% | 0% | 0% | 89.2% | 94.9% | 89.1%
26 | CCC[C@@H](C(=O)N[C@@H](C)C(=O)O)N(C)C(=O)[C@@H](NC(=O)[C@@H](N)C(C)C)C(C)C (H-VV[NMeNva]A-OH) | 40.8% | 34.9% | 22.2% | 82.1% | 83.7% | 87.3%
27 | CC[C@H](C)[C@H](NC(=O)[C@@H](NC(=O)[C@@H](N)C(C)C)C(C)C)C(=O)N[C@@H](CCC(N)=O)C(=O)O (H-VVIQ-OH) | 23.4% | 26.5% | 24.2% | 74.6% | 75.2% | 76.9%
28 | CC[C@H](C)[C@H](NC(=O)[C@@H](NC(=O)[C@@H](N)C(C)C)C(C)C)C(=O)N[C@@H](CC(N)=O)C(=O)O (H-VVIN-OH) | 71.5% | 59.9% | 38.6% | 69.2% | 67.4% | 93.6%
29 | CC[C@H](C)[C@H](NC(=O)[C@@H](NC(=O)[C@@H](N)Cc1ccncc1)C(C)C)C(=O)N[C@@H](C)C(=O)O (H-[4Pal]VIA-OH) | 46% | 44.2% | 42.7% | 96.8% | 78.2% | 82%
